From US9453835B2, “Method for screening a modulator of a TMEM16 family member” (Kyoto University, priority 2012, dated 2016) come the findings set out here.

Assay [1] relates to TMEM16F^flox/flox IFETs. Description: Ca2+-induced PS exposure (Cy5-Annexin V binding, flow cytometry). To be noted: 20° C., 3.0 μM A23187. The class given is cell-based, mouse. On the procedure:
(§1) A, Ca^2+ ionophore induced PS exposure. TMEM16F^flox/flox and TMEM16F^−/− IFETs were treated at 20° C. with 3.0 μM A23187 in the presence of Cy5-labeled Annexin V. Annexin V-binding to the cells was monitored by flow cytometry for 10 min, and expressed in MFI (mean fluorescence intensity).
(§2) The Ca^2+-induced PS exposure were examined as described (20). In brief, 5×10^5 cells were stimulated at 20° C. with 3.0 μM A23187 in 500 μl of 10 mM Hepes-NaOH buffer (pH 7.4) containing 140 mM NaCl, 2.5 mM CaCl2 and 5 μg/ml Propidium Iodide (PI), and 1000-fold-diluted Cy5-labeled Annexin V (Bio Vision, Milpitas, Calif.), and applied to the injection chamber of a FACSAria (BD Bioscience, Franklin Lakes, N.J.) set at 20° C.

A further assay relates to TMEM16F^−/− IFETs. The description is as above. The class given is cell-based, mouse. To be noted: 20° C., 3.0 μM A23187. On the procedure: as §1, §2
In assay [2] the test system is TMEM16F^flox/flox IFETs. Description: Ca2+-induced PE exposure (binding of RO-peptide). Type of assay: cell-based, mouse. To be noted: data not shown.
Assay [3] relates to TMEM16F^flox/flox IFETs. Description: Internalization of NBD-PC and NBD-GalCer. Type of assay: cell-based, mouse. To be noted: 15° C., 250 nM A23187. On the procedure: B and C, Ca^2+ ionophore induced lipid internalization. TMEM16F^flox/flox and TMEM16F^−/− IFETs were treated at 15° C. with 250 nM A23187 in the presence of 100 nM NBD-PC (B) or 250 nM NBD-GalCer (C). Using aliquots of the reaction mixture, the BSA-non extractable level of NBD-PC or NBD-GalCer in the SytoxBlue-negative population was determined at the indicated time by FACSAria, and expressed in MFI.
(§3) Cells (10^6) were stimulated at 15° C. with 250 nM A23187 in 1 ml Hank's Balanced Salt Solution (HBSS) (Gibco, Billings, Mont.) containing 1 mM CaCl2, with a fluorescent probe, 100 nM 1-oleoyl-2-{6-[(7-nitro-2-1,3-benzoxadiazol-4-yl)amino]hexanoyl}-sn-glycero-3-phosphocholine (NBD-PC) (Avanti Polar Lipids, Alabaster, Ala.), or 250 nM N-[6-[(7-nitro-2-1,3-benzoxadiazol-4-yl)amino]hexanoyl]-D-galactosyl-β1-1′-sphingosine (C6-NBD galactosyl ceramide or NBD-GalCer) (Avanti Polar Lipids). Aliquots (150 μl) were mixed with 150 μl HBSS containing 5 mg/ml fatty-acid free BSA (Sigma-Aldrich) and 500 nM Sytoxblue (Molecular Probes, Eugene, Oreg.), and analyzed by FACSAria.

For assay [4], the system named is TMEM16D transformants of TMEM16F^−/− IFETs. Kind of assay: Internalization of NBD-PC and NBD-GalCer by TMEM16D transformants. Type of assay: cell-based, mouse. The note with it: 15° C. On the procedure:
(§4) A and C, The ability of TMEM16 family members to internalize NBD-PC and NBD-GalCer. TMEM16F^−/− IFETs transformed with the indicated TMEM16 family member were treated at 15° C. with (+) or without (−) 250 nM A23187 in the presence of 100 nM NBD-PC for 4 min (A) or 250 nM NBD-GalCer for 5 min (C), and the internalized, or BSA-non extractable NBD-PC or NBD-GelCer, was quantified by FACSAria, and expressed in MFI.
B, Requirement of Ca^2+ for the constitutive internalization of NBD-PC by TMEM16D. The TMEM16D transformants of TMEM16F^−/− IFETs were treated with 40 μM BAPTA-AM for 30 min in Ca^2+-free RPMI, and incubated at 15° C. for 8 min in HBSS containing 1 mM CaCl2 and 100 nM NBD-PC. The internalized NBD-PC was determined as above, and expressed as percentage of the internalized NBD-PC obtained without BAPTA-AM treatment.
as §3

Assay [5] relates to IFETs expressing TMEM16A, 16B, 16E, 16H, or 16K. Description: Internalization of NBD-PC by TMEM16 transformants without scramblase activity. The class given is cell-based, mouse. To be noted: 250 nM A23187. On the procedure: as §4, §3
Assay [6] deals with IFETs expressing mouse Fas. Description: FasL-induced apoptosis. The class given is cell-based. On the procedure: E-G, FasL-induced apoptosis. Fas-expressing TMEM16F^flox/flox and TMEM16F^−/− IFETs were treated at 37° C. for 2 h with 60 units/ml FasL in the absence or presence of 50 μM Q-VD-OPh. In E, the cells were permeabilized with 90% methanol, and stained with rabbit anti-active caspase 3 followed by incubation with Alexa 488-labeled goat anti-rabbit IgG. In F, cells were stained with Cy5-labeled Annexin V and PI and analyzed by FACSAria. In G, cells were analyzed by FACSAria before and after FasL treatment; the FSC and SSC profiles are shown.
Apoptosis was induced with FasL as described (25). In brief, IFETs expressing mouse Fas were treated with 60 units/ml FasL at 37° C. for 2 h, and PS exposure was determined by flow cytometry with Cy5-Annexin V. To detect activated caspase 3, cells were fixed at 37° C. for 10 min in PBS containing 1% paraformaldehyde, permeabilized with 90% methanol at −20° C., and stained with rabbit mAb against active caspase 3 (Cell Signaling, Danvers, Mass.). Cells were then incubated with Alexa 488-labeled goat anti-rabbit IgG (Invitrogen), and analyzed by FACSAria.

Setting [7] is: TMEM16F^flox/flox and TMEM16F^−/− IFETs, to the same extent.

Regarding `CNc1ccc2oc(C[C@H]3O[C@@]4(CC[C@H]3C)O[C@H]([C@H](C)C(=O)c3ccc[nH]3)[C@H](C)C[C@H]4C)nc2c1C(=O)O` [A23187], the PS exposure result in the assay on TMEM16F^flox/flox IFETs [1] was “quickly exposed PS”; in the assay on TMEM16F^−/− IFETs, “completely absent”. Besides, the PE-exposure entry in the assay on TMEM16F^flox/flox IFETs [2] is given as “caused rapid PE-exposure”. In the assay on TMEM16F^flox/flox IFETs [3], the “internalization of NBD-PC and NBD-GalCer” value is “internalized NBD-PC and NBD-GalCer”. In addition, the NBD-PC internalization result in assay [4] (250 nM A23187, 100 nM NBD-PC, 4 min, versus constitutive uptake) was “strongly enhanced”. Also, the NBD-GalCer uptake entry in assay [4] (250 nM A23187, 250 nM NBD-GalCer, 5 min, versus constitutive uptake) is recorded as “enhanced”. Besides, the NBD-PC uptake result in assay [5] is “did not induce”.
Consider `CC(=O)OCOC(=O)CN(CC(=O)OCOC(C)=O)c1ccccc1OCCOc1ccccc1N(CC(=O)OCOC(C)=O)CC(=O)OCOC(C)=O` [BAPTA-AM], for which the “NBD-PC uptake observed without Ca2+-ionophore” value in assay [4] (pre-treatment 40 μM BAPTA-AM 30 min, 100 nM NBD-PC, 8 min) was “reduced”.

B1: FasL: Leucine-zipper-tagged human FasL produced in COS7 cells (protein)
chain: QIGHPSPPPEKKELRKVAHLTGKSNSRSMPLEWEDTYGIVLLSGVKYKKGGLVINETGLYFVYSKVYFRGQSCNNLPLSHKVYMRNSKYPQDLVMMEGKMMSYCTTGQMWARSSYLGAVFNLTSADHLYVNVSELSLVNFEESQTFFGLYKL
modifications: left off: small tags and cut ends
notes: Leucine-zipper-tagged human FasL produced in COS7 cells
As to B1, in assay [6] (60 units/ml FasL, 37° C., 2 h), the “caspase 3 activation” value is recorded as “efficiently activated”. Further, the PS exposure entry in assay [6] (60 units/ml FasL, 37° C., 2 h, Cy5-Annexin V) is recorded as “quickly responded by exposing PS”. Further, in assay [6] (setting [7]), the “cell size (forward-scattered light, FSC)” value is “decreased” and the “cellular granularity (side-scattered light, SSC)” value was “increased”.
